In brackets after ≈: the same amount, converted by molar mass. Read-outs that look alike come from different tables or passages of the source.
What was measured:
[1] = Solubility measurements in saline (PBS, LC/MS); assay type: physicochemical
Method: Solubility measurements. A saturated compound solution was prepared by addition of DMSO stock to phosphate buffered saline (final DMSO 2%) followed by sonication for 5 min at 25° C. and shaking at room temperature for 1 h. After centrifugation at 15,000 rpm for 1 h, the supernatant was analyzed by LC/MS with concentration determined from area under the curve, standardized against calibration data. A standard curve for each compound was obtained by plotting area under the curve from chromatograms against inhibitor concentration. The concentration range of the standard solutions was 1-15 μM (for 5) and 1-100 μM (other compounds). In all cases, standard curves prepared were linear with r>0.998.
A saturated drug solution of a compound was prepared by addition of the compound in DMSO to phosphate buffered saline (PBS), followed by sonication for 5 min at 25° C. Final concentration of DMSO was <2%. Each saturated solution was centrifuged and filtered. The saturated supernatant solution was diluted and injected into LC/MS. The concentration was determined from area under the curve using a calibration curve.

FRT cells = test: Cytotoxicity measurements, crystal violet staining of FRT cells; assay type: cell-based, rat; conditions: 48 h
Method: Cytotoxicity measurements. FRT cells in confluent monolayers were incubated with compounds for 2 days. Cells were washed 3 times, fixed (cytofix, 30 min) and stained with crystal violet (100 μl, 0.5%, 10 min) using standard procedures. Excess crystal violet was removed by washing, and dye was extracted with Sorenson's buffer (0.1 M sodium citrate, 50% ethanol, pH 4.2). Crystal violet was quantified by measurement of absorbance at 650 nm. The percentage crystal violet staining was determined from test wells measured 8 times, compared to blanks (wells not containing cells) and vehicle-treated cells.
Cytotoxicity analysis was performed for Tetrazolo-172, Oxo-172, α-Me-172 and Pyridine-NO-172 (Compound 17) and compared with CFTRinh-172 (Table 3). […] Crystal violet staining was reduced for Tetrazolo-172 and α-Me-172 at 50 μM.

human wildtype CFTR = human wildtype CFTR (Homo sapiens, UniProt P13569); test: Fluorescence cell-based assay of CFTR inhibition (YFP iodide influx, FRT cells); design: expressed in transfected cells; host or cells: Fisher rat thyroid (FRT) cells; conditions: given as ranges, read-out: IC50
Sequence of human wildtype CFTR (P13569 whole entry): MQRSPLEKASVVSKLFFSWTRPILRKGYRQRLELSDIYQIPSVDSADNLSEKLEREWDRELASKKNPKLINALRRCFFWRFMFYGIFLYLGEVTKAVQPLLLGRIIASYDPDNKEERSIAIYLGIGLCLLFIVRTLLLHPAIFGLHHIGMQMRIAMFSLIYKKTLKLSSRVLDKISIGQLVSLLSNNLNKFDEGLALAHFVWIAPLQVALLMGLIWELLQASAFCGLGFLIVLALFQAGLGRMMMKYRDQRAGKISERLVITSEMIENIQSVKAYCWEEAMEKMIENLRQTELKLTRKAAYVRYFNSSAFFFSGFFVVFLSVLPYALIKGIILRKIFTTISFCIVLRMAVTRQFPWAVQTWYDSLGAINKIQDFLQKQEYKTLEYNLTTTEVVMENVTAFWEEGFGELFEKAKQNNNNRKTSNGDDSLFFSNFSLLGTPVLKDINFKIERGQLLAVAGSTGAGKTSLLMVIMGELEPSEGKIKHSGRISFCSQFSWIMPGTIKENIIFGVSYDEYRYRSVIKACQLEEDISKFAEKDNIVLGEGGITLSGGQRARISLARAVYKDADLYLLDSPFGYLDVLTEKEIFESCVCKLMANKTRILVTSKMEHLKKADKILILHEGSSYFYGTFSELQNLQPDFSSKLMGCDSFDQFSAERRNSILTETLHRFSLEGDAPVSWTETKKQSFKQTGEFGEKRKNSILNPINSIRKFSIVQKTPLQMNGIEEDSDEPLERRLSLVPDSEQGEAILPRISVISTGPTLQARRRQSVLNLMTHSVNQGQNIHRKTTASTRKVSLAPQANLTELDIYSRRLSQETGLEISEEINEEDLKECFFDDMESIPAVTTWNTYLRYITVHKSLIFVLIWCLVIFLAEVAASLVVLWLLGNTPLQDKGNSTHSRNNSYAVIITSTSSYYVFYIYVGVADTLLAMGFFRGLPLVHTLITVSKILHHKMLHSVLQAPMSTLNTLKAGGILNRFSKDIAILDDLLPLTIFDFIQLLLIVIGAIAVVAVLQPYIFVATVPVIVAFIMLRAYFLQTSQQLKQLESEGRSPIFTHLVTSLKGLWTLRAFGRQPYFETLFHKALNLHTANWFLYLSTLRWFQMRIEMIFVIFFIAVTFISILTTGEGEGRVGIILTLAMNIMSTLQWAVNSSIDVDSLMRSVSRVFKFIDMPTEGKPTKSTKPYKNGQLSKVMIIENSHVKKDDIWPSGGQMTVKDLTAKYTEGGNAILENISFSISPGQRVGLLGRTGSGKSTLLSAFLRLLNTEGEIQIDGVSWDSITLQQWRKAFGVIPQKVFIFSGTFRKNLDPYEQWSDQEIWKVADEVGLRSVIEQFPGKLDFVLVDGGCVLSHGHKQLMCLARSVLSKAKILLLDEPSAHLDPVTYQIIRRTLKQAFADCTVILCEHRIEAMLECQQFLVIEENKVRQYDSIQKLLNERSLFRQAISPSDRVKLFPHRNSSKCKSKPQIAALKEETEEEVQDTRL
Method: CFTR inhibition by thiazolidinone derivative compounds was determined by a fluorescence cell-based assay utilizing doubly transfected cells expressing human wild-type CFTR and a yellow fluorescent protein (YFP) iodide sensor, as described (see, e.g., Galietta, et al., J. Physiol. 281:C1734-C1742 (2001)). Fisher rat thyroid (FRT) cells stably expressing wild-type human CFTR and YFP-H148Q were cultured on 96-well black-wall plates as described (see, e.g., Ma, et al., J. Clin. Invest. 110:1651-1658 (2002)). Cells in 96-well plates were washed three times, and then CFTR was activated by incubation for 15 minutes with an activating cocktail containing 10 μM forskolin, 20 μM apigenin, and 100 μM IBMX. Test compounds were added 5 minutes before assay of iodide influx in which cells were exposed to a 100 mM inwardly directed iodide gradient. YFP fluorescence was recorded for 2 seconds before and 12 seconds after creation of the iodide gradient. Initial rates of iodide influx were computed from the time course of decreasing fluorescence after the iodide gradient.
CFTR-facilitated iodide influx following extracellular iodide addition results in quenching of cytoplasmic YFP fluorescence.

O=C1/C(=C/c2ccc(-c3nn[nH]n3)cc2)SC(=S)N1c1cccc(C(F)(F)F)c1 [Compound 6, (Z)-5-(4-(1H-tetrazol-5-yl)benzylidene)-2-thioxo-3-(3-(trifluoromethyl)phenyl)thiazolidin-4-one]
increase of solubility in saline/water relative to CFTRinh-172 [1]: 11 fold | Solubility in saline ([1]; Table 3, PBS, DMSO <2%): 189 µM (≈ 81.9 µg/mL) | % Cell viability 20 μM (FRT cells; 20 μM, crystal violet staining): 87% | Crystal violet staining at 50 μM (in words) (FRT cells; 50 μM): reduced | % Cell viability 50 μM (FRT cells; 50 μM, crystal violet staining): 73% | IC50 (human wildtype CFTR; Table 1, upper part, CFTR inhibitory activity): 100 to 1000 nM | IC50 (human wildtype CFTR; Table 2 summary table): 100 to 1000 nM
